According to ChEMBL document CHEMBL1629701, “Phase 2a randomized controlled trial of short-term activity, safety, and pharmacokinetics of a novel nonnucleoside reverse transcriptase inhibitor, RDEA806, in HIV-1-positive, antiretroviral-naive subjects” (Antimicrob Agents Chemother, 2010):
Active and inactive are the calls of the source. No cut-off for these calls is given here.

Columns and labels:
[1] = system: Human immunodeficiency virus 1; assay: Antiviral activity against HIV1 infected in human assessed as change in CD8 expressing T-cell count from baseline at 800 mg, po administered every day as four enteric-coated tablets followed by a single dose on day 8 measured on day 9 relative to pooled placebo control; type: functional
[2] = Renal clearance in rat; type: ADME, organism-based, Kidney; conditions: in vivo, read-out: CL_renal
Homo sapiens [3] = assay: Reduction in uric acid level in healthy human serum at 800 mg, po administered every day; type: ADME, organism-based; conditions: in vivo
[4] = AUC (0 to 12 hrs) in human plasma at 300 mg administered as multiple doses, BID; type: ADME, organism-based; set-up: time < 12 hr, dose 300 mg
[5] = Renal clearance in rhesus monkey; type: ADME, organism-based, Macaca mulatta, Kidney; conditions: in vivo, read-out: CL_renal
[6] = system: Human immunodeficiency virus 1; assay: Antiviral activity against HIV1 infected in fed human assessed as viral load decay rate as viral log10 RNA copies/ml/day at 800 mg, po administered every day as four enteric-coated tablets followed by a single dose on day 8 measured on day 9; type: functional
[7] = system: Human immunodeficiency virus 1; assay: Antiviral activity against HIV1 infected in fasted human assessed as decrease in log10 HIV RNA copies/ml at 1000 mg, po […] followed by a single dose on day 8 measured on day 9 relative to pooled placebo control; type: functional
[8] = system: Human immunodeficiency virus 1; assay: Antiviral activity against HIV1 infected in human assessed as change in CD4 expressing T-cell count from baseline at 400 mg, po BID for 7 days as four modified-release capsules followed by a single dose on day 8 measured on day 9 relative to pooled placebo control; type: functional
[9] = Plasma protein binding in rhesus monkey; type: ADME, cell-free, Macaca mulatta; conditions: read-out: PPB
[10] = system: Human immunodeficiency virus 1; assay: Antiviral activity against HIV1 infected in human assessed as log reduction in HIV-1 RNA level at 800 mg, po administered every day; type: functional
[11] = Tmax in fasted human plasma at 50 to 300 mg; type: ADME, organism-based
[12] = system: Human immunodeficiency virus 1; assay: Antiviral activity against HIV1 infected in fasted human assessed as viral load decay rate as viral log10 RNA copies/ml/day at 600 mg, po BID for 7 days as four modified-release capsules followed by a single dose on day 8 measured per day for 9 days; type: functional
[13] = system: Human immunodeficiency virus 1; assay: Antiviral activity against HIV1 infected in human assessed as change in CD8 expressing T-cell count from baseline at 600 mg, po BID for 7 days as four modified-release capsules followed by a single dose on day 8 measured on day 9 relative to pooled placebo control; type: functional
[14] = system: Human immunodeficiency virus 1; assay: Antiviral activity against HIV1 infected in human assessed as change in CD4 expressing T-cell count from baseline at 800 mg, po administered every day as four enteric-coated tablets followed by a single dose on day 8 measured on day 9 relative to pooled placebo control; type: functional
Homo sapiens [15] = species: Homo sapiens; assay: Cardiotoxicity in healthy human assessed as changes in electrocardiographic QTc interval; type: toxicity, organism-based; conditions: in vivo
[16] = Tmax in fasted human at 600 mg, po every 24 hrs measured on day 8; type: ADME, organism-based; conditions: in vivo
Homo sapiens [17] = species: Homo sapiens; assay: Toxicity in healthy human assessed as occurrence of adverse events; type: organism-based; conditions: in vivo
[18] = Drug concentration at steady state in fasted human plasma at 800 mg, po every 24 hrs measured on day 8; type: ADME, organism-based; conditions: read-out: Drug uptake
[19] = Cmax in fasted human at 1000 mg, po every 24 hrs measured on day 8; type: ADME, organism-based; set-up: dose 1000 mg, route oral; conditions: plasma
Homo sapiens [20] = assay: Reduction in uric acid level in healthy human serum at 600 mg, po administered every day; type: functional
[21] = AUC (24 hrs) in fasted human at 1000 mg, po every 24 hrs measured on day 8; type: ADME, organism-based; set-up: dose 1000 mg, time < 24 hr, route oral; conditions: plasma
[22] = AUC (24 hrs) in fasted human at 400 mg, po every 24 hrs measured on day 8; type: ADME, organism-based; set-up: time < 24 hr, dose 400 mg, route oral; conditions: plasma
[23] = Drug excretion in human urine; type: ADME; conditions: read-out: Activity
[24] = system: Human immunodeficiency virus 1; assay: Antiviral activity against HIV1 infected in human assessed as change in CD8 expressing T-cell count from baseline at 1000 mg, po administered every day as five enteric-coated tablets followed by a single dose on day 8 measured on day 9 relative to pooled placebo control; type: functional
[25] = system: Human immunodeficiency virus 1; assay: Antiviral activity against HIV1 infected in human assessed as change in CD4 expressing T-cell count from baseline at 600 mg, po BID for 7 days as four modified-release capsules followed by a single dose on day 8 measured on day 9 relative to pooled placebo control; type: functional
[26] = Plasma protein binding in human; type: ADME, cell-free; conditions: read-out: PPB
[27] = Plasma protein binding in dog; type: ADME, cell-free, Canis lupus familiaris; conditions: read-out: PPB
[28] = system: Human immunodeficiency virus 1; assay: Antiviral activity against HIV1 infected in fasted human assessed as decrease in plasma viral log10 RNA copies/ml at 600 mg, po […] followed by a single dose on day 8 measured on day 9 relative to pooled placebo control; type: functional
Homo sapiens [29] = species: Homo sapiens; assay: Reduction in uric acid level in human plasma; type: functional, organism-based
[30] = system: Human immunodeficiency virus 1; assay: Antiviral activity against HIV1 infected in fasted human assessed as decrease in plasma viral log10 RNA copies/ml at 1000 mg, po […] followed by a single dose on day 8 measured on day 9 relative to pooled placebo control; type: functional
[31] = Half life in fasted human at 400 mg, po every 24 hrs measured on day 8; type: ADME, organism-based; conditions: in vivo
[32] = system: Human immunodeficiency virus 1; assay: Antiviral activity against HIV1 infected in fasted human assessed as as viral load decay rate as viral log10 RNA copies/ml/day at 1000 mg, po administered every day as five enteric-coated tablets followed by a single dose on day 8 measured on day 9; type: functional

O=C(CSc1nnc(Br)n1-c1ccc(C2CC2)c2ccccc12)Nc1ccc(C(=O)O)cc1Cl
Activity [1]: 79.41 /mm3
CL renal [2]: ≤ 1 mL/min
Activity (Homo sapiens [3]): 58 µmol/L
AUC at 12 h [4]: 3160 ng·h/mL
CL renal [5]: ≤ 1 mL/min
Activity [6]: -0.2 mL⁻¹
Activity [7]: -1.696 mL⁻¹
Activity [8]: 19.22 /mm3
fraction unbound [9]: < 0.01
Activity [10]: 0.5 mL⁻¹
Tmax [11]: 1.25 h
Activity [12]: -0.18 mL⁻¹
Activity [13]: 64.54 /mm3
Activity [14]: 100.74 /mm3
Activity (Homo sapiens [15]): Non-toxic
Tmax [16]: 2 h
Activity (Homo sapiens [17]): Non-toxic
concentration at 24 h [18]: 310 ng/mL
Cmax [19]: 3700 ng/mL
Activity (Homo sapiens [20]): 81 µmol/L
AUC at 24 h [21]: 17400 ng·h/mL
AUC at 24 h [22]: 12400 ng·h/mL
dose excreted [23]: < 0.06%
Activity [24]: 71.04 /mm3
Activity [25]: -14.44 /mm3
fraction unbound [26]: < 0.01
fraction unbound [27]: < 0.01
Activity [28]: -1.5241 mL⁻¹
Activity (Homo sapiens [29]): Active
Activity [30]: -1.8189 mL⁻¹
half-life [31]: 11.3 h
Activity [32]: -0.22 mL⁻¹
